Here are results for one molecule from patent US9956157B2, “Composition containing fucosterol for skin whitening or moisturizing” (INDUSTRY-ACADEMIC COOPERATION FOUNDATION, YONSEI UNIVERSITY, priority 2014, dated 2018).

Holding throughout (type): cell-based
For data set [1], the system named is B16F10 melanoma cells. Nature of the data set: MTT cytotoxicity in B16F10 melanoma cells. Particulars: concentration of 0 to 20 μM, 48 hrs, FIG. 1. As for the experimental part:
B16F10 melanoma cells were incubated a dulbecco's modified eagle's media (DMEM) medium including 10% fetal bovine serum and then added in a 24-well plate with 2.5×10^4 cell/mL (the final volume of 1 mL). Fucosterol of 0.1, 1, 5, 10, and 20 μM was treated in the B16F10 melanoma cells, respectively. After treatment of 48 hrs, the medium was removed and a 0.5 mg/mL MTT solution was put in each well by 0.3 mL and the B16F10 melanoma cells were incubated in an incubator for 4 hrs. After 4 hrs, the MTT solution was removed and generated formazan was dissolved by adding dimetyl sulfoxide (DMSO) and then absorbance was measured at 570 nm and the result was illustrated in FIG. 1.

The test system of data set [2] is TRP-1 (tyrosinase-related protein 1). Nature of the data set: TRP-1 protein expression (western blot) in B16F10 melanoma cells. Particulars: 200 nM α-MSH, fucosterol 5 and 20 μM, 24 hrs, FIG. 6. As for the experimental part: B16F10 melanoma cells were incubated in a DMEM medium including 10% fetal bovine serum and then added in a 6-well plate with 2.5×10^5 cell/mL (the final volume of 3 mL). After being incubated for 24 hrs, the medium was removed and fucosterol which was dissolved in the DMEM medium including 200 nM α-MSH was treated at 5 and 20 μM of concentrations, respectively. The cells after 24 hrs were lysed with a NP40 buffer solution including proteinase inhibitor cocktail and the protein amount extracted from the cells was quantified by using a Bradford reagent. The quantified protein was boiled for 5 min and isolated by electrophoresis with 10% SDS-PAGE to transfer the isolated proteins to a nitrocellular membrane. A primary antibody of […] and […] was diluted in 2.5% bovine serum albumin at a ratio of 1:1000 and reacted with the protein transferred to the nitrocellular membrane for 20 hrs at room temperature. The primary antibody was reacted and then the nitrocellular membrane was washed three times by using the TBST for 10 min. […] As the measured result, the protein expression of […] and […] was verified and it was shown that the loading amount of the protein was constant by α-tubulin.

Data set [3] concerns MITF (microphthalmia transcription factor). Nature of the data set: MITF mRNA expression (RT-PCR) in B16F10 melanoma cells. Particulars: 200 nM α-MSH, fucosterol 5 and 20 μM, 24 hrs, FIG. 7. As for the experimental part:
B16F10 melanoma cells were incubated in a DMEM medium including 10% fetal bovine serum and then added in a 6-well plate with 2.5×10^5 cell/mL (the final volume of 3 mL). After being incubated for 24 hrs, the medium was removed and fucosterol which was dissolved in the DMEM medium including 200 nM α-MSH was treated at 5 and 20 μM of concentrations, respectively. After 24 hrs, the total RNA was isolated by using a TRIzol reagent (Invitrogen, Carlsbad, Calif., USA). The isolated total RNAs were quantified by using a nano-drop (ND-1000). The quantified RNA was synthesized to cDNA by using reverse transcriptase and a PCR machine (Applied biosystems, Foster city, CA, USA) and then the PCR was performed with specific primers below.
As the PCR result, the amplified cDNA was isolated with a 1.5% agarose gel by electrophoresis and cDNA bands were verified by using a G:BOX EF imaging system (Syngene, Cambridge, UK), and the result was illustrated in FIG. 7.

The test system of data set [4] is involucrin. Nature of the data set: Involucrin mRNA expression (RT-PCR) in HaCaT human keratinocytes. The settings on record: HaCaT cells, fucosterol 5, 10, 20 μM, 24 hrs, FIG. 9. As for the experimental part:
(§1) HaCaT human keratinocytes were incubated in a Dulbecco's Modified Eagle's Media (DMEM) medium including 10% fetal bovine serum and then put in a 6-well plate with 2×10^5 cell/ml (the final volume of 3 ml). After being incubated for 24 hrs, the medium was removed and fucosterol which was dissolved in the DMEM medium was treated at 5, 10, and 20 μM concentrations, respectively. After 24 hrs, the total RNA was collected by using a TRIzol reagent (Invitrogen, Carlsbad, Calif., USA) and reverse-transcribed and then a reverse transcription-polymerase chain reaction (RT-PCR) analysis was performed below. First, for cDNA synthesis, the RNA was reverse-transcribed by reverse transcriptase. The RT-PCR was performed by specific primers below and the result was illustrated in FIG. 9.

The subject of data set [5] is transglutaminase. Nature of the data set: Transglutaminase mRNA expression (RT-PCR) in HaCaT human keratinocytes. Particulars: HaCaT cells, fucosterol 5, 10, 20 μM, 24 hrs, FIG. 9.
Data set [6] relates to caspase 14. The experiment in a line: Caspase 14 mRNA expression (RT-PCR) in HaCaT human keratinocytes. Particulars: HaCaT cells, fucosterol 5, 10, 20 μM, 24 hrs, FIG. 11. As for the experimental part:
as §1, with “11.” for “9.”

The subject of data set [7] is filaggrin. Nature of the data set: Filaggrin protein expression (western blot) in HaCaT human keratinocytes. The settings on record: HaCaT cells, fucosterol 5, 10, 20 μM, 24 hrs, FIG. 12. As for the experimental part: HaCaT human keratinocytes were incubated in a Dulbecco's Modified Eagle's Media (DMEM) medium including 10% fetal bovine serum and then put in a 6-well plate with 2×10^5 cell/ml (the final volume of 3 ml). After being incubated for 24 hrs, the medium was removed and fucosterol which was dissolved in the DMEM medium was treated at 5, 10, and 20 μM concentrations, respectively. After 24 hrs, the HaCaT human keratinocytes were lysed with a NP40 buffer solution including proteinase inhibitor cocktail. The protein amount extracted from the HaCaT human keratinocytes was quantified by using a Bradford method. The sample was boiled for 5 min and then the same amount of protein ([…]) was isolated by electrophoresis with 10% SDS-PAGE. The isolated proteins after electrophoresis were transferred to a nitrocellular membrane and western blot was performed. A primary antibody was reacted and the nitrocellular membrane was washed three times by using Tris-buffer saline tween20 (TBST) for 10 min. In this case, the kind and the dilution of the primary antibody used in the present invention is 1:1000. In a secondary antibody reaction, a secondary antibody was put in the membrane performing the primary antibody reaction and reacted for 2 hrs at room temperature. In this case, a dilution of the secondary antibody was 1:5000. […]
Background: In western blotting, separated proteins are transferred to a membrane and probed.

Turning to `C/C=C(\CC[C@@H](C)[C@H]1CC[C@H]2[C@@H]3CC=C4C[C@@H](O)CC[C@]4(C)[C@H]3CC[C@]12C)C(C)C` [fucosterol], the “cytotoxicity (MTT)” value in data set [1] is listed as “the cytotoxicity was not shown”. Further, in data set [2], the “protein expression of TRP-1” value is reported as “reduced”. In addition, in data set [3], the “mRNA amount of MITF” value is reported as “reduced”. The “mRNA expression of involucrin” value in data set [4] is recorded as “increased”. Moreover, the “mRNA expression of transglutaminase” value in data set [5] is “increased”. Besides, the “mRNA expression of caspase 14” value in data set [6] was “increased”. Besides, in data set [7], the “protein expression of filaggrin” value was “increased”.
